Assays:
[1] = pre-hydrolyzed BSA perfused into jejunum of human subjects (Reicht et al. 1997); cited from earlier work
[2] = Incorporation of leucine products into beverages / aqueous systems (dispersibility, separation, turbidity); type: physicochemical; conditions: for ease of dispersion when incorporated into beverages: beverages / aqueous systems

In the case of N[C@@H](CSSC[C@H](N)C(=O)O)C(=O)O [cystine], the rate of absorption [1] is listed as 3%.
With CC(C)C[C@H](N)C(=O)O [free leucine, (S)-2-amino-4-methylpentanoic acid, reference compound] the “appearance in aqueous solution (separation, turbidity)” value [2] was “separation phenomenon” and the “ease of dispersion when incorporated into beverages” value [2] was “difficult to disperse”.
In the case of “calcium leucinate [chelated leucine product]”, the “appearance in aqueous solution (separation, turbidity)” value [2] is reported as “did not separate or increase turbidity” and the “ease of dispersion when incorporated into beverages” value [2] is reported as “much more easily dispersed”.
